Measurements as given in PubChem BioAssay AID2060513 (Molecular Pharmacology Branch, DTP, NCI, 2025).

Test system: 299254-011-R-J1-PDC complex spheroids viability
Assay: Anticancer human tumor 299254-011-R-J1-PDC patient-derived melanoma cell line growth inhibition [GQUAD]
Conditions: for IC50: curve of first compound; for viability, T/C: stronger effect = lower value
Source text: DNA G-quadruplex Stabilizer Agents in Combinations in Complex Spheroids
A high-throughput screen of multi-cell type tumor spheroids was designed to identify active combinations of DNA G-quadruplex stabilizer agents and targeted small molecules. Complex spheroids include a stromal component modeled by human endothelial cells (HUVEC) and fibroblasts modeled by human mesenchymal stem cells (MSCs). The concentration ranges selected for each drug and investigational agent were based upon clinically achievable concentrations if the clinical Cmax of the agent was known.
Compounds. The drugs and investigational agents: pidnarulex (CX-5461; NSC782164), APTO-253 (NSC789042), BRACO-19 (NSC847499), peposertib (NSC802822), ceralasertib (NSC780249), elimusertib (NSC800525), camonsertib (NSC841442), AZD-1390 (NSC803789), olaparib (NSC753686), talazoparib (NSC767125), ART-558 (NSC835418), sotorasib (NSC818433), MRTX-1133 (NSC836407), SN-38 (NSC673596), topotecan (NSC609699), etoposide (NSC141540), doxorubicin (NSC123127), gemcitabine (NSC613327), 5-fluorouracil (NSC19893), paclitaxel (NSC125973), vemurafenib (NSC761431), panobinostat (NSC761190), R-306465 (JNJ-16241199; NSC773264), adavosertib (NSC754352), TP-3654 (NSC805149), carboplatin (NSC241240), KSQ-4279 (NSC840948), and staurosporine (NSC755774) were obtained from the National Cancer Institute (NCI) Developmental Therapeutics Program Chemical Repository (34). The FDA-approved anticancer drug set is available from the NCI Developmental Therapeutics Program. […] The stock solutions were prepared in dimethyl sulfoxide (DMSO, Sigma-Aldrich, St. Louis, MO, cat. D2650) at 800-fold the tested concentration and stored at -70 degrees C prior to their use. All drugs and investigational agents were tested over a range starting from a high concentration at or near the clinical Cmax and decreasing in half-log increments. If the clinical Cmax for an agent had not been determined, the highest concentration tested was 10 microM.
2.3 Cell Culture. All cells were maintained in an incubator at 37 degrees C and 5% CO2 with 95% humidity. The PDC lines were cultured according to standard operating procedures established by the NCI PDMR. All PDCs were thawed and cultured in Matrigel-coated flasks prepared with a working solution of 1X Ham's F-12 nutrient mix, without supplementation (Invitrogen, cat. 11765054), 100 U/mL penicillin-streptomycin (Invitrogen, cat. 15140122), and 2.5% Matrigel (Corning Inc., cat. 354248) for the first three passages. The 857933-349-R-J2-PDC line was cultured in 6C/Colon 1B media, which includes advanced DMEM/F-12 (Thermo Fisher Scientific, cat. 12634028), 10 mM HEPES (Thermo Fisher Scientific, cat. 15630080), 1X GlutaMAX supplement (Thermo Fisher Scientific, cat. 35050061), 0.1 mg/mL primocin (InvivoGen, cat. ant-pm-2), 10% defined fetal bovine serum, heat inactivated (HyClone Laboratories Inc., cat. SH30070.03HI), 50% L-WRN conditioned media (ATCC, cat. CRL-3276), 1.25 mM N-Acetyl-L-cysteine (Sigma-Aldrich, cat. A9165), 10 mM nicotinamide (Sigma-Aldrich, cat. N0636), 1X B-27 supplement (Thermo Fisher Scientific, cat. 17504044), 1X N-2 supplement (Thermo Fisher Scientific, cat. 17502048), 10 microM Y-27632 dihydrochloride (Tocris Bioscience, cat. 1254), and 50 ng/mL human EGF recombinant protein (Thermo Fisher Scientific, cat. PHG0311). The 485176-168-R4-J1-PDC line was cultured in Panc media, which includes all 6C/Colon 1B media components plus 100 ng/mL human FGF-10 (Thermo Fisher Scientific, cat. 100-26), 500 nM SB-431542 (Selleckchem, cat. S1067), and gastrin (Tocris, cat. 3006).
[…]

[1] = second compound 0.0316 µM, first compound 0.0316 µM
[2] = second compound 0.0316 µM, first compound 0.1 µM
[3] = second compound 0.0316 µM, first compound 0.316 µM
[4] = second compound 0.0316 µM, first compound 1 µM
[5] = second compound 0.0316 µM, first compound 3.16 µM
[6] = second compound 0.0316 µM, first compound 10 µM
[7] = second compound 0.1 µM, first compound 0.0316 µM
[8] = second compound 0.1 µM, first compound 0.1 µM
[9] = second compound 0.1 µM, first compound 0.316 µM
[10] = second compound 0.1 µM, first compound 1 µM
[11] = second compound 0.1 µM, first compound 3.16 µM
[12] = second compound 0.1 µM, first compound 10 µM
[13] = second compound 0.316 µM, first compound 0.0316 µM
[14] = second compound 0.316 µM, first compound 0.1 µM
[15] = second compound 0.316 µM, first compound 0.316 µM
[16] = second compound 0.316 µM, first compound 1 µM
[17] = second compound 0.316 µM, first compound 3.16 µM
[18] = second compound 0.316 µM, first compound 10 µM
[19] = second compound 1 µM, first compound 0.0316 µM
[20] = second compound 1 µM, first compound 0.1 µM
[21] = second compound 1 µM, first compound 0.316 µM
[22] = second compound 1 µM, first compound 1 µM
[23] = second compound 1 µM, first compound 3.16 µM
[24] = second compound 1 µM, first compound 10 µM
[25] = second compound 3.16 µM, first compound 0.0316 µM
[26] = second compound 3.16 µM, first compound 0.1 µM
[27] = second compound 3.16 µM, first compound 0.316 µM
[28] = second compound 3.16 µM, first compound 1 µM
[29] = second compound 3.16 µM, first compound 3.16 µM
[30] = second compound 3.16 µM, first compound 10 µM
[31] = second compound 10 µM, first compound 0.0316 µM
[32] = second compound 10 µM, first compound 0.1 µM
[33] = second compound 10 µM, first compound 0.316 µM
[34] = second compound 10 µM, first compound 1 µM
[35] = second compound 10 µM, first compound 3.16 µM
[36] = second compound 10 µM, first compound 10 µM
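Further: spheroids exposed to the agents for seven days before readout.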
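Wherever viability, T/C is given: percent viability relative to DMSO vehicle control wells = 100%.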

Q: `C#Cc1c(F)ccc2cc(O)cc(-c3ncc4c(N5CC6CCC(C5)N6)nc(OCC56CCCN5CC(F)C6)nc4c3F)c12` (centres undefined) + CN(C)c1ccc(Nc2c3ccc(NC(=O)CCN4CCCC4)cc3nc3cc(NC(=O)CCN4CCCC4)ccc23)cc1 was tested. Which IC50 (second compound 0.0316 µM) did it give?
A: > 10000 nM

Q: What about the IC50 (second compound 0.1 µM) of the same compound?
A: > 10000 nM

Q: What about the IC50 (second compound 0.316 µM) of the same compound?
A: > 10000 nM

Q: What about the IC50 (second compound 1 µM) of the same compound?
A: > 10000 nM

Q: And the IC50 (second compound 3.16 µM)?
A: > 10000 nM

Q: And the IC50 (second compound 10 µM)?
A: > 10000 nM

Q: What about the viability, T/C [1] of the same compound?
A: 85.8%

Q: What about the viability, T/C [2] of the same compound?
A: 92.7%

Q: What about the viability, T/C [3] of the same compound?
A: 101%

Q: What about the viability, T/C [4] of the same compound?
A: 105%

Q: And the viability, T/C [5]?
A: 104%

Q: What about the viability, T/C [6] of the same compound?
A: 78.9%

Q: And the viability, T/C [7]?
A: 114%

Q: And the viability, T/C [8]?
A: 96.4%

Q: And the viability, T/C [9]?
A: 94.8%

Q: And the viability, T/C [10]?
A: 101%

Q: And the viability, T/C [11]?
A: 85.2%

Q: What about the viability, T/C [12] of the same compound?
A: 66%

Q: What about the viability, T/C [13] of the same compound?
A: 113%

Q: And the viability, T/C [14]?
A: 114%

Q: And the viability, T/C [15]?
A: 82.2%

Q: What about the viability, T/C [16] of the same compound?
A: 79.3%

Q: And the viability, T/C [17]?
A: 93.5%

Q: And the viability, T/C [18]?
A: 77%

Q: And the viability, T/C [19]?
A: 85.4%

Q: And the viability, T/C [20]?
A: 105%

Q: And the viability, T/C [21]?
A: 76.7%

Q: What about the viability, T/C [22] of the same compound?
A: 99.7%

Q: And the viability, T/C [23]?
A: 89.2%

Q: What about the viability, T/C [24] of the same compound?
A: 83.9%

Q: And the viability, T/C [25]?
A: 110%

Q: And the viability, T/C [26]?
A: 123%

Q: What about the viability, T/C [27] of the same compound?
A: 97.3%

Q: And the viability, T/C [28]?
A: 112%

Q: What about the viability, T/C [29] of the same compound?
A: 73.6%

Q: And the viability, T/C [30]?
A: 69.9%

Q: And the viability, T/C [31]?
A: 100%

Q: And the viability, T/C [32]?
A: 94.8%

Q: What about the viability, T/C [33] of the same compound?
A: 101%

Q: And the viability, T/C [34]?
A: 87.8%

Q: What about the viability, T/C [35] of the same compound?
A: 85.4%

Q: And the viability, T/C [36]?
A: 72.5%

Q: For `CC(=O)O[C@H]1C(=O)[C@@]2(C)[C@H]([C@H](OC(=O)c3ccccc3)[C@]3(O)C[C@H](OC(=O)[C@H](O)[C@@H](NC(=O)c4ccccc4)c4ccccc4)C(C)=C1C3(C)C)[C@]1(OC(C)=O)CO[C@@H]1C[C@@H]2O` + CN(C)c1ccc(Nc2c3ccc(NC(=O)CCN4CCCC4)cc3nc3cc(NC(=O)CCN4CCCC4)ccc23)cc1, which IC50 (second compound 0.0316 µM) is on record?
A: 461 nM

Q: And the IC50 (second compound 0.1 µM)?
A: 364 nM

Q: And the IC50 (second compound 0.316 µM)?
A: 271 nM

Q: And the IC50 (second compound 1 µM)?
A: 316 nM

Q: What about the IC50 (second compound 3.16 µM) of the same compound?
A: 489 nM

Q: And the IC50 (second compound 10 µM)?
A: 524 nM

Q: And the viability, T/C [1]?
A: 73.9%

Q: And the viability, T/C [2]?
A: 84.6%

Q: What about the viability, T/C [3] of the same compound?
A: 60.9%

Q: What about the viability, T/C [4] of the same compound?
A: 26.3%

Q: And the viability, T/C [5]?
A: 19%

Q: And the viability, T/C [6]?
A: 17.5%

Q: And the viability, T/C [7]?
A: 83.8%

Q: And the viability, T/C [8]?
A: 87.4%

Q: What about the viability, T/C [9] of the same compound?
A: 51.9%

Q: And the viability, T/C [10]?
A: 23.7%

Q: And the viability, T/C [11]?
A: 14.5%

Q: And the viability, T/C [12]?
A: 11.2%

Q: And the viability, T/C [13]?
A: 81.5%

Q: And the viability, T/C [14]?
A: 96%

Q: And the viability, T/C [15]?
A: 44%

Q: What about the viability, T/C [16] of the same compound?
A: 37.1%

Q: What about the viability, T/C [17] of the same compound?
A: 22.6%

Q: And the viability, T/C [18]?
A: 16.4%

Q: What about the viability, T/C [19] of the same compound?
A: 93.8%

Q: What about the viability, T/C [20] of the same compound?
A: 78%

Q: What about the viability, T/C [21] of the same compound?
A: 49.8%

Q: What about the viability, T/C [22] of the same compound?
A: 28.6%

Q: What about the viability, T/C [23] of the same compound?
A: 19.1%

Q: What about the viability, T/C [24] of the same compound?
A: 17.7%

Q: What about the viability, T/C [25] of the same compound?
A: 89.1%

Q: What about the viability, T/C [26] of the same compound?
A: 83.8%

Q: What about the viability, T/C [27] of the same compound?
A: 60.6%

Q: What about the viability, T/C [28] of the same compound?
A: 32.2%

Q: What about the viability, T/C [29] of the same compound?
A: 19.1%

Q: What about the viability, T/C [30] of the same compound?
A: 16.4%

Q: And the viability, T/C [31]?
A: 83.3%

Q: And the viability, T/C [32]?
A: 84.3%

Q: And the viability, T/C [33]?
A: 62.7%

Q: What about the viability, T/C [34] of the same compound?
A: 33%

Q: And the viability, T/C [35]?
A: 17.4%

Q: And the viability, T/C [36]?
A: 15.1%
